Measured values reported in patent US8536160B2, “Azaheterocyclyl derivatives of androstanes and androstenes as medicaments for cardiovascular disorders” (priority 2006, dated 2013).
pIC50: −log10 of the molar value. Counter-ions that a name gives are not always drawn. Like-named read-outs stand apart in the source and are kept apart here.

Key:
[1] = target: Dog Kidney Na+, K+-ATPase (Canis lupus familiaris, UniProt P50997); experiment: Inhibition of the enzymatic activity of purified Na+,K+-ATPase (hydrolysis of 32P-ATP); format: biochemical
anesthetized guinea-pig = experiment: Inotropic effect and lethal dose, slow intravenous infusion in anesthetized guinea-pig; format: in vivo; design: Maximum dose infused: unit not given here; conditions: for Emax / ED80 / ED (max): Cavia porcellus, iv, 1.5 h; for Emax: maximum increase in contractile force, read-out: Emax % increase in +dP/dTmax; for ED80: read-out: ED80 (inotropic potency, dose increasing +dP/dTmax by 80%); for ED (max): read-out: EDmax (dose inducing maximum positive inotropic effect); for % decrease from Emax after 20 min from the end of the infusion: duration of the inotropic effect; for Maximum dose infused: maximum dose infused in the survived animals
[2] = dog kidney enzyme, hydrolysis of 32P-ATP in presence and absence of compound, read-out: Na+, K+-ATPase Inhibition IC50
[3] = read-out: Na+, K+-ATPase Inhibition IC50
[4] = slow i.v. infusion over 90 minutes, anesthetized guinea-pig
[5] = slow i.v. infusion over 90 minutes

Row | Molecule | pIC50 [1, 2] | pIC50 ([1]; Na+, K+-ATPase Inhibition IC50) | also measured
1 | CON=C1CC2C3CCC(=O)C3(C)CCC2C2(C)CCC(=NOC3CCNC3)CC12O (single isomer, unassigned) [I-bv] | 6.82 | – | –
2 | C[C@]12CC/C(=N\O[C@H]3CCNC3)CC1[C@@H](CO)C(=O)[C@@H]1[C@@H]2CC[C@]2(C)C(=O)CC[C@@H]12 (stereo partly drawn) [I-dj, (E)-3-[3-(S)-Pyrrolidinyl)oxyimino]-6α-hydroxymethylandrostane-7,17-dione fumarate] | – | – | pIC50 ([1]; Na+, K+-ATPase Inhibition IC50, dog kidney enzyme, hydrolysis of 32P-ATP in presence and absence of compound): 7.44
3 | CC12CCC3C(CC(NC=O)C4CC(=NOC5CCNC5)CCC43C)C1CCC2=O (mixture of isomers) [I-ay, (E,Z) 3-[3-(R)-Pyrrolidinyl]oxyimino-6α-formamidoandrostane-17-one hydrochloride] | 7.39 | – | –
4 | C=C1C[C@H]2[C@@H]3CCC(=O)[C@@]3(C)CC[C@@H]2[C@@]2(C)CC/C(=N\O[C@@H]3CCN(C)C3)C[C@]12O [I-bm, (E) 3-[3′-(R)-(1-Methyl)-pyrrolidinyl]oxyimino-5α-hydroxy-6-methyleneandrostane-17-one fumarate] | – | – | pIC50 [1, 3]: 5.85
5 | C[C@]12CCC(=NO[C@H]3CCNC3)C=C1/C(=N/O)C[C@@H]1[C@@H]2CC[C@]2(C)C(=O)CC[C@@H]12 [I-dv, (E,Z) 3-[3-(S)-Pyrrolidinyl]oxyimino-6-(E)-hydroxyiminoandrost-4-ene-17-one fumarate] | – | – | pIC50 [1, 3]: 6.66
6 | CC12CCC3C(C(NC=O)CC4CC(=NOC5CCNC5)CCC43C)C1CCC2=O (mixture of isomers) [I-cp, (E,Z) 3-[3′-(R)-Pyrrolidinyl]oxyimino-7α-formamidoandrostane-17-one hydrochloride] | 5.34 | – | –
7 | CC12CCC3C(C(CO)CC4CC(=NOC5CCNC5)CCC43C)C1CCC2=O (mixture of isomers) [I-ch, (E,Z) 3-[3′-(R)-Pyrrolidinyl]oxyimino-7α-hydroxymethylandrostane-17-one hydrochloride] | 6.80 | – | –
8 | CN1CCC(ON=C2CCC3(C)C(C2)C(CO)C(=O)C2C4CCC(=O)C4(C)CCC23)C1 (mixture of isomers) [I-ct, (E,Z) 3-[3′-(R)-(1-Methyl)pyrrolidinyl]oxyimino-6α-hydroxymethylandrostane-7,17-dione fumarate] | 6.57 | – | –
9 | C=CCON=C1CC2CC(=NOC3CCNC3)CCC2(C)C2CCC3(C)C(=O)CCC3C12 (mixture of isomers) [I-cf, (E,Z) 3-[3′-(R)-Pyrrolidinyl]oxyimino-7-(E)-allyloxyiminoandrostane-17-one fumarate] | 5.40 | – | –
10 | CC12CCC3C(CC(=O)C4CC(=NOC5CNC5)CCC43C)C1CCC2=O (mixture of isomers) [I-ab] | – | 6.59 | –
11 | CON=C1CC2CC(=NOC3CCNC3)CCC2(C)C2CCC3(C)C(=O)CCC3C12 (mixture of isomers) [I-ce, (E,Z) 3-[3-(R)-Pyrrolidinyl]oxyimino-7(E)-methoxyiminoandrostan-17-one fumarate] | 5.52 | – | –
12 | C[C@]12CC[C@H](OC(=O)C3CNC3)CC1C(=O)C[C@@H]1[C@@H]2CC[C@]2(C)C(=O)CC[C@@H]12 (stereo partly drawn) [I-cx, 3β-(3-Azetidincarbonyloxy)androstane-6,17-dione hydrochloride] | – | 5.38 | –
13 | C=C1CC2C3CCC(=O)C3(C)CCC2C2(C)CCC(=NOC3CCNC3)CC12O (racemic) [I-bk, (E,Z) 3-[3′-(S)-Pyrrolidinyl]oxyimino-5α-hydroxy-6-methylene-androstane-17-one fumarate] | – | 6.32 | –
14 | CC1CC2CC(=NOC3CCNC3)CCC2(C)C2CCC3(C)C(=O)CCC3C12 [I-cm, (E) 3-[3′-(R)-Pyrrolidinyl]oxyimino-7β-methylandrostane-17-one hydrochloride] | – | 6.85 | –
15 | CON=C1CC2C3CCC(=O)C3(C)CCC2C2(C)CCC(=NOC3CCN(C)C3)CC12 (mixture of isomers) [I-bg, (E,Z) 3-[3′-(R)-(1-Methyl)pyrrolidinyl]oxyimino-(E)-6-methoxyiminoandrostane-17-one hydrochloride] | 5.24 | – | –
16 | C[C@]12CC[C@@H](SC3CCNC3)CC1C(=O)C[C@@H]1[C@@H]2CC[C@]2(C)C(=O)CC[C@@H]12 (mixture of isomers) [I-dc, 3α-[3-(RS)-Pyrrolidinylthio]androstane-6,17-dione fumarate] | – | – | pIC50 [1, 3]: 4.02
17 | 3β-(2-(R,S)-piperazinylcarbonyloxy)androstane-6,7-dione dihydrochloride [I-da] | – | – | pIC50 [1, 3]: 4.17
18 | CON=C1CC2C3CCC(=O)C3(C)CCC2C2(C)CCC(=NOC3CCN(C)C3)CC12O (single isomer, unassigned) [I-ca] | 5.22 | – | –

Row | Molecule | pIC50 [1, 2] | pIC50 ([1]; Na+, K+-ATPase Inhibition IC50) | also measured
19 | CN1CCC(ON=C2CCC3(C)C(C2)C(=O)CC2C4CCC(=O)C4(C)CCC23)C1 (single isomer, unassigned) [I-al] | – | 5.89 | –
20 | C[C@]12CC/C(=N\OC3CCNC3)CC1C(=O)C[C@@H]1[C@@H]2CC[C@]2(C)C(=O)CC[C@@H]12 (mixture of isomers) [I-ac, (E) 3-[3-(RS)-Pyrrolidinyl]oxyiminoandrostane-6,17-dione hydrochloride] | – | 6.96 | –
21 | C=C1C[C@H]2[C@@H]3CCC(=O)[C@@]3(C)CC[C@@H]2[C@@]2(C)CC/C(=N\O[C@H]3CCNC3)C[C@]12O [I-bj, (E) 3-[3′-(S)-Pyrrolidinyl]oxyimino-5α-hydroxy-6-methyleneandrostane-17-one fumarate] | – | 6.32 | –
22 | C=C1CC2C3CCC(=O)C3(C)CCC2C2(C)CCC(=NOC3CCNC3)CC12 (mixture of isomers) [I-aq, (E,Z) 3-[3-(R)-Pyrrolidinyl]oxyimino-6-methyleneandrostane-17-one hydrochloride] | – | 7.34 | –
23 | CC12CCC3C(CC(=O)C4CC(=NOCC5CCCN5)CCC43C)C1CCC2=O (mixture of isomers) [I-ah, hydrochloride] | – | 4.64 | –
24 | CC12CCC3C(CC(CO)C4CC(=NOC5CCNC5)CCC43C)C1CCC2=O (mixture of isomers) [I-ar, (E,Z) 3-[3-(R)-Pyrrolidinyl]oxyimino-6α-hydroxymethylandrostan-17-one hydrochloride] | 7.59 | – | –
25 | C=C1C[C@H]2[C@@H]3CCC(=O)[C@@]3(C)CC[C@@H]2[C@@]2(C)CC/C(=N/O[C@H]3CCNC3)C[C@]12O [I-bi, (Z) 3-[3′-(S)-Pyrrolidinyl]oxyimino-5α-hydroxy-6-methyleneandrostane-17-one fumarate] | – | 5.22 | –
26 | CC12CCC3C(C(=O)CC4CC(=NOC5CCNC5)CCC43C)C1CCC2=O (single isomer, unassigned) [I-cb] | – | 7.05 | –
27 | CC12CCC3C(CC(O)C4CC(=NOC5CCNC5)CCC43C)C1CCC2O (mixture of isomers) [I-do, (E,Z) 3-[3-(R)-Pyrrolidinyl]oxyiminoandrostane-6α,17β-diol hydrochloride] | – | 6.31 | –
28 | C[C@]12CC[C@@H](/C=C\[C@@H]3CCNC3)CC1C(=O)C[C@@H]1[C@@H]2CC[C@]2(C)C(=O)CC[C@@H]12 (stereo partly drawn) [I-de, 3α-[2-(Pyrrolidin-3-(S)-yl)-(Z)-vinyl]androstane-6,17-dione formate] | – | 6.41 | –
29 | CC12CCC3C(CC(=O)C4CC(=NOC5CCCNC5)CCC43C)C1CCC2=O (mixture of isomers) [I-aj, (E) 3-[3′-(R,S)-Piperidinyl]oxyiminoandrostane-6,7-dione hydrochloride] | – | 4.48 | –
30 | CO/N=C1\C[C@H]2[C@@H]3CCC(=O)[C@@]3(C)CC[C@@H]2[C@@]2(C)CC/C(=N/O[C@H]3CCN(C)C3)C[C@]12O [I-bx, (Z) 3-[3′-(S)-(1-Methyl)pyrrolidinyl]oxyimino)-5α-hydroxy-6-(E)-methoxyiminoandrostane-17-one fumarate] | 4.02 | – | –
31 | CO/N=C1\C[C@H]2[C@@H]3CCC(=O)[C@@]3(C)CC[C@@H]2[C@@]2(C)CC/C(=N/O[C@@H]3CCN(C)C3)C[C@]12O [I-bz, (Z) 3-[3′-(R)-(1-Methyl)pyrrolidinyl]oxyimino)-5α-hydroxy-6-(E)-methoxyiminoandrostane-17-one fumarate] | 4.03 | – | –
32 | COC1CC2CC(=NOC3CCNC3)CCC2(C)C2CCC3(C)C(=O)CCC3C12 (mixture of isomers) [I-dn, (E,Z) 3-[3-(R)-Pyrrolidinyl]oxyimino-7α-methoxyandrostane-17-one fumarate] | 5.23 | – | –
33 | CC12CCC3C(CC(=NO)C4CC(=NOC5CCNC5)CCC43C)C1CCC2=O (mixture of isomers) [I-av, (E,Z) 3-[3-(R)-Pyrrolidinyl]oxyimino-6(E)-hydroxyiminoandrostan-17-one hydrochloride] | – | – | Emax (anesthetized guinea-pig; [4]): 144%; ED80 (anesthetized guinea-pig; [4]): 1.49 µmol/kg; ED (max) (anesthetized guinea-pig; [4]): 4.3 µmol/kg; % decrease from Emax after 20 min from the end of the infusion (anesthetized guinea-pig; anesthetized guinea-pig): 100%; Dead/treated (anesthetized guinea-pig; [4]): 0/3; Maximum dose infused (anesthetized guinea-pig; [5]): 6.3
34 | CN1CCC(ON=C2CCC3(C)C(C2)C(=O)CC2C4CCC(=O)C4(C)CCC23)C1 (single isomer, unassigned) [I-ak, hydrochloride] | – | 4.39 | –
35 | C[C@]12CC[C@H]3[C@@H](C/C(=N\O)[C@@]4(O)CC(=NO[C@H]5CCNC5)CC[C@]34C)[C@@H]1CCC2=O (mixture of isomers) [I-bq, (E,Z) 3-[3-(S)-Pyrrolidinyl]oxyimino-5α-hydroxy-6-(E)-hydroxyiminoandrostane-17-one hydrochloride] | – | – | Emax (anesthetized guinea-pig; [4]): 380%; ED80 (anesthetized guinea-pig; [4]): 0.59 µmol/kg; ED (max) (anesthetized guinea-pig; [4]): 3.72 µmol/kg; Maximum dose infused (anesthetized guinea-pig; [5]): 18.7
36 | C[C@H]1O[C@@H](O[C@H]2[C@@H](O)C[C@H](O[C@H]3[C@@H](O)C[C@H](O[C@H]4CC[C@@]5(C)[C@H](CC[C@@H]6[C@@H]5C[C@@H](O)[C@]5(C)[C@@H](C7=CC(=O)OC7)CC[C@]65O)C4)O[C@@H]3C)O[C@@H]2C)C[C@H](O)[C@@H]1O [digoxin, reference compound] | – | – | Emax (anesthetized guinea-pig; [4]): 158%; ED80 (anesthetized guinea-pig; [4]): 0.29 µmol/kg; ED (max) (anesthetized guinea-pig; [4]): 0.65 µmol/kg; % decrease from Emax after 20 min from the end of the infusion (anesthetized guinea-pig; anesthetized guinea-pig): 100%; Maximum dose infused (anesthetized guinea-pig; [5]): 1.16
